Assay results published in patent US4745111A, “Anti-anxiety, anti-agitation, and anti-sleepless states 4-substituted 10-cyanomethylenethieno-[4,3-e]benzoazepine derivatives, compositions, and methods of use therefor” (priority 1985, dated 1988).
Entries after “also recorded” stand apart in the source; their conditions may differ. Like-named read-outs stand apart in the source and are kept apart here.

Tests used:
[1] = system: physostigmin; assay: Anticholinergic action (protection from physostigmin lethality) in the mouse; type: in vivo, mouse (female NMRI); settings: for ED50: Mus musculus, po, read-out: Anticholinergic action, mouse, ED50 %; for Anticholinergic action (in words): comparison of isomers and with comparative substance
Method: A lethal dose (0.825 mg/kg) of physostigmin is administered subcutaneously to groups of 10 female NMRI mice. The test substances are administered orally 30 minutes before administration of physostigmin. The ED50 % is determined as the dose of substance which protects 50% of the animals from death due to physostigmin.

[2] = system: L-5HTP; assay: L-5-HTP antagonism (serotonin antagonism) in the rat; type: in vivo; settings: po, read-out: Antimonaminergic action: L-5HTP antagonism, rat, ED50 %
Method: In the rat (316 mg/kg, administered intraperitoneally), L-5-[…] (L-5HTP), a prodrug for serotonin, leads to signs of agitation, such as shaking of the head, tremors and movements of the front feet. The animals are observed for 1 hour after administration of L-5HTP, and the symptoms occurring are quantified every 10 minutes with the aid of a score. The test substances are administered perorally 1 hour before L-5HTP. The ED50 % is calculated as the dose which produces on average a 50% reduction in the scores observed for a control group.

[3] = system: apomorphine; assay: Apomorphine antagonistic action (antidopaminergic action), climbing in mice; type: in vivo, mouse; settings: for ED50: Mus musculus, po, apomorphine 1.21 mg/kg s.c., dose reducing climbing scores by 50% vs control, read-out: Antimonaminergic action: Apomorphine antagonism, mouse, ED50 %; for Antimonaminergic action (in words): apomorphine (mouse) and L-5HTP (rat) antagonism together, comparison of isomers and with comparative substance
Method: In mice kept in a suitable environment (e.g. a wiremesh cage), apomorphine (1.21 mg/kg, administered subcutaneously) leads to increased climbing. The animals are observed for 30 minutes after administration of apomorphine, and the climbing is quantified every 2 minutes with the aid of a score. The test substances are administered perorally 60 minutes […] administration of apomorphine. The ED50 % is calculated as the dose which reduces the scores by 50% compared with a control group.

[4] = system: orientation hypermotility; assay: Sedative action in the mouse (inhibition of orientation hypermotility); type: in vivo, mouse (female NMRI); settings: for ED50: Mus musculus, 0.5 h, female NMRI mice, oral, dose giving 50% reduction in orientation hypermotility, measured from 30 min after administration over 30 min; for Sedative action (in words): comparison of cis/trans isomers and with comparative substance
Method: The substances are administered orally to 4-8 groups of female NMRI mice, each group comprising 3 mice. The orientation hypermotility induced by a new environment was determined photoelectrically 30 minutes after administration of the substances, over a period of 30 minutes.
The ED50 %, i.e. the dose which produces a 50% reduction in orientation hypermotility compared to placebo-treated control animals, is determined.

[5] = L-5HTP 316 mg/kg i.p., substance p.o. 1 hour before, 50% reduction in scores

`CN1CCN(C2=Nc3cc(Cl)ccc3C(=CC#N)c3cscc32)CC1` (mixture of isomers) [Example 3, cis,trans-7-chloro-10-cyanomethylene-4-(4-methylpiperazin-1-yl)-thieno[4,3-e]benzoazepine] was tested, and the ED50 [1] was greater than 21.5 mg/kg, the ED50 [2, 5] was 0.8 mg/kg and the ED50 [3] was roughly 2 mg/kg. For the same molecule, the ED50 [4] was 0.89 mg/kg.
For `CN1CCN(C2=Nc3ccccc3/C(=C\C#N)c3cscc32)CC1` [1 (trans), trans-10-cyanomethylene-4-(4-methylpiperazin-1-yl)-thieno[4,3-e]benzoazepine], the ED50 [1] was 5.2 mg/kg, the “Anticholinergic action (in words)” value [1] was “predominates; also recorded: stronger than that of the comparative substances” and the ED50 [2, 5] was 33 mg/kg. The ED50 [3] was 10.9 mg/kg, the “Antimonaminergic action (in words)” value [3] was “fairly weak” and the ED50 [4] was 5.1 mg/kg. The “Sedative action (in words)” value [4] was “fairly weak”.
Work on `CCN1CCN(C2=Nc3ccccc3C(=CC#N)c3cscc32)CC1` (mixture of isomers) [Example 9, cis,trans-10-cyanomethylene-4-(4-ethylpiperazin-1-yl)-thieno[4,3-e]benzoazepine] yielded an ED50 [1] greater than 10 mg/kg, an ED50 [3] of 1 mg/kg and an ED50 [4] of 0.81 mg/kg.
`CN1CCN(C2=Nc3ccccc3/C(=C/C#N)c3cscc32)CC1` [Example 1 (cis), cis-10-cyanomethylene-4-(4-methylpiperazin-1-yl)-thieno[4,3-e]benzoazepine] was tested, and the ED50 [1] was greater than 10 mg/kg, the “Anticholinergic action (in words)” value [1] was “greatly reduced” and the ED50 [2, 5] was 1 mg/kg. The ED50 [3] was 1 mg/kg, the “Antimonaminergic action (in words)” value [3] was “displayed preferentially by the cis isomer” and the ED50 [4] was 0.35 mg/kg. The “Sedative action (in words)” value [4] was “displayed preferentially by the cis isomer”.
For `CN1CCN(C2=Nc3ccccc3C(=CC#N)c3cscc32)CC1` (mixture of isomers) [Example 1, cis,trans-10-cyanomethylene-4-(4-methylpiperazin-1-yl)-thieno[4,3-e]benzoazepine], the ED50 [1] was 15.8 mg/kg, the ED50 [2, 5] was 0.77 mg/kg and the ED50 [3] was 1.7 mg/kg. The ED50 [4] was 0.89 mg/kg.
For `Cc1ccc2c(c1)N=C(N1CCN(C)CC1)c1cscc1C2=CC#N` (mixture of isomers) [Example 5, cis,trans-7-methyl-10-cyanomethylene-4-(4-methylpiperazin-1-yl)-thieno[4,3-e]benzoazepine], the ED50 [1] was greater than 21.5 mg/kg, the ED50 [2, 5] was 1.4 mg/kg and the ED50 [3] was roughly 2.1 mg/kg. The ED50 [4] was 3.75 mg/kg.
In the case of `CN1CCN(C2=Nc3cc(F)ccc3C(=CC#N)c3cscc32)CC1` (mixture of isomers) [Example 4, cis,trans-7-fluoro-10-cyanomethylene-4-(4-methylpiperazin-1-yl)-thieno[4,3-e]benzoazepine], the ED50 [1] is reported as roughly 21 mg/kg, the ED50 [2, 5] is reported as 1 mg/kg and the ED50 [3] is reported as roughly 2 mg/kg. For the same molecule, the ED50 [4] was 3.27 mg/kg.
In the case of `CN1CCN(C2=Nc3c(Cl)cccc3/C(=C\C#N)c3cscc32)CC1` [Example 16, trans-6-chloro-10-cyanomethylene-4(4-methylpiperazin-1-yl)-thieno[4,3-e]benzoazepine], the ED50 [1] is reported as greater than 10 mg/kg, the ED50 [2] is reported as 1 mg/kg and the ED50 [4] is reported as roughly 3 mg/kg.
Work on `CN1CCN(C2=Nc3cc(Cl)ccc3Nc3ccccc32)CC1` [Clozapine, clozapine, reference compound] yielded an ED50 [2, 5] of 6.3 mg/kg, an ED50 [3] of 11.3 mg/kg and an ED50 [4] of 3.8 mg/kg.
